The target of one assay is T1, PLK1 (Homo sapiens, UniProt P53350).
T1 construct: Full-length, active GST-Plk1 was purified from Sf9 insect cells; GST (N); made in house; host or cells: Sf9 insect cells
T1 sequence (P53350 whole entry): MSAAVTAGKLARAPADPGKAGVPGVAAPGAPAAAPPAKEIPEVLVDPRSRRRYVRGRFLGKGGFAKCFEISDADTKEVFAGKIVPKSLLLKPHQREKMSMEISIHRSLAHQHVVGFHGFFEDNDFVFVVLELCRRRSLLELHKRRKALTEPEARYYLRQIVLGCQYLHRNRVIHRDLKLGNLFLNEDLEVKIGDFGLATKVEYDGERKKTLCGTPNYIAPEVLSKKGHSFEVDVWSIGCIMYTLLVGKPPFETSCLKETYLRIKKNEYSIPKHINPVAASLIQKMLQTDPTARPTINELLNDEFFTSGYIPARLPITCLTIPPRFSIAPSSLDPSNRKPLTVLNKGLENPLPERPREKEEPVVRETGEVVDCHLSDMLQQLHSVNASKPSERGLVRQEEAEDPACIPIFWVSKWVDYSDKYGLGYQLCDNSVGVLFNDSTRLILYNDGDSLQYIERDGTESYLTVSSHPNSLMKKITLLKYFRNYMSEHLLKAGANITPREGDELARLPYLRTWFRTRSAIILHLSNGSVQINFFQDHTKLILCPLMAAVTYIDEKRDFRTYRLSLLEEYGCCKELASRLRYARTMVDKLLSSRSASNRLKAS
Kind of assay: Biochemical Characterization Assay B (peptide substrate, LABCHIP EZ Reader II). Conditions: PLK1, peptide RRRAGALMDASFEEQ-CONH2, % conversion on LABCHIP EZ Reader II. The protocol:
Compounds were serially diluted to 6400, 2133, 711, 237, 79, 26, 8.78, 2.93, 0.98 and 0.33 μM in 100% DMSO. Diluted compound was further diluted 20 fold with Kinase Assay Buffer (KAB). Peptide RRRAGALMDASFEEQ-CONH2 (MW 2090) was diluted to 1.2 μM with KAB and ATP was added to 400 μM. PLK1 stock, prepared as described above, was diluted to 3 μg protein/mL with KAB right before it was added to MATRIX 384-Well Polypropylene Black Plates to start the reaction. 20 μL of KAB diluted compounds (or 5% DMSO in KAB for Total and Blank), 20 μL of KAB diluted peptide with ATP and 40 μL of KAB diluted PLK1 solution (KAB without PLK 1 for Blanks) were transferred to each well of the polypropylene plates. The reaction mixtures were incubated at room temperature for 40 minutes. Reactions were stopped by addition of 10 uL Reaction Stopping Buffer (RSB) to each well. Plates were then read on LABCHIP EZ Reader II from Caliper Life Science.
(§1) The IC50 values for each compound were generated using an Excel template. The % conversion readings of Total and Blank were used as 0% and 100% inhibition. The percent inhibition values of reactions in the presence of compounds were calculated, and plotted against compound concentrations. All data were fitted into a Dose Response One Site model (4 parameter logistic model) as the following: (A+4B−A)/(1+((x/C)^13)))), with A and B as the bottom and top of the curve (highest and lowest inhibition), respectively, and C as IC50 and D as Hill Coefficient of the compound.
T2 sequence (P53350 whole entry): as above
For `COc1cc2ncn(-c3nc(-c4cccc(Cl)c4)c(C(N)=O)s3)c2cc1OCCCN1CCN(C)CC1` [Example 42, 4-(3-Chloro-phenyl)-2-{5-methoxy-6-[3-(4-methyl-piperazin-1-yl)-propoxy]-benzoimidazol-1-yl}-thiazole-5-carboxylic acid amide], the IC50 is 60 nM.

The next assay concerns the target T2, GST-Plk1 (Homo sapiens, UniProt P53350).
T2 construct: Full-length, active GST-Plk1 was purified from Sf9 insect cells; made in house; host or cells: Sf9 insect cells
Put plainly: Biochemical Characterization Assay A (HTRF, phosphorylation of GST-p53). Conditions: full-length GST-Plk1, GST-p53 substrate, HTRF signal. As to the method: Full-length, active GST-Plk1 was purified from Sf9 insect cells, and full-length GST-p53 was purified in E. coli. Anti-phospho p53 antibody was purchased from Cell Signaling Technology. Europium-conjugated anti-rabbit antibody was purchased from PerkinElmer Life and Analytical Sciences. APC-conjugated anti-GST antibody was purchased from Prozyme.
To two microliters of compound (0.6 nM-4 mM) in DMSO or plain DMSO for control wells, 38 microliters of 20 mM HEPES pH 7, 50 mM NaCl, 10 mM MgCl2, 0.5 mM TCEP, 0.1 mM sodium orthovanadate, 0.1 mg/ml BSA, and 0.05% Triton X-100 (Kinase Assay Buffer) were added. Eight microliters of the compound solution were added to a 384-well black microtiter plate, followed by six microliters of GST-p53 (17 ug/ml) and ATP (333 uM) in Kinase Assay Buffer. Six microliters of GST-Plk1 (3 ug/ml) in Kinase Assay Buffer were then added and the solution incubated at 37° C. for 35 minutes. Six microliters of solution containing 43 mM EDTA to stop the reaction and a 1:600 dilution of anti-phospho-p53 antibody in 20 mM HEPES pH 7, 50 mM NaCl, and 0.5 mg/ml BSA (Antibody Binding Buffer) were added and the solution incubated at 37° C. for 30 minutes. Six microliters of solution containing 9 nM europium-conjugated anti-rabbit antibody and 120 nM APC-conjugated anti-GST antibody in Antibody Binding Buffer were then added and the mixture incubated at room temperature for 1.5 hours. The HTRF signal was read on the Envision reader (PerkinElmer Life and Analytical Sciences).
as §1
A general note: Time-resolved FRET reads energy transfer from a long-lived donor to a nearby acceptor.
`CN1CCN(Cc2ccc3ncn(-c4nc(-c5ccccc5)c(C(N)=O)s4)c3c2)CC1` [Example 1, 2-[6-(4-Methyl-piperazin-1-ylmethyl)-benzoimidazol-1-yl]-4-phenyl-thiazole-5-carboxylic acid amide]: the IC50 was 167 nM.

As to `NC(=O)c1sc(-n2cnc3ccc(OC4CCNCC4)cc32)nc1-c1cccc(Cl)c1` [Example 21, 4-(3-Chloro-phenyl)-2-[6-(piperidin-4-yloxy)-benzoimidazol-1-yl]-thiazole-5-carboxylic acid amide], the IC50 turned out to be 80 nM.

For the compound `CN1CCN(Cc2ccc3c(c2)ncn3-c2nc(-c3cccc(Cl)c3)c(C(N)=O)s2)CC1` [Example 3, 4-(3-Chloro-phenyl)-2-[5-(4-methyl-piperazin-1-ylmethyl)-benzoimidazol-1-yl]-thiazole-5-carboxylic acid amide], the midpoint of inhibition, the IC50, lay at 1100 nM.

`CN1CCN(Cc2ccc3ncn(-c4nc(-c5cccc(C(F)(F)F)c5)c(C(N)=O)s4)c3c2)CC1` [Example 48, 2-[6-(4-Methyl-piperazin-1-ylmethyl)-benzoimidazol-1-yl]-4-(3-trifluoromethyl-phenyl)-thiazole-5-carboxylic acid amide]: the IC50 came out at 59 nM.

Compound `NC(=O)c1sc(-n2cnc3ccc(OC4CCCCC4)cc32)nc1-c1cccc(Cl)c1` [Example 25, 4-(3-Chloro-phenyl)-2-(6-cyclohexyloxy-benzoimidazol-1-yl)-thiazole-5-carboxylic acid amide] showed an IC50 of 660 nM.

Compound `NC(=O)c1sc(-n2cnc3ccc(CN4CCOCC4)cc32)nc1-c1cccc(Cl)c1` [Example 4, 4-(3-Chloro-phenyl)-2-(6-morpholin-4-ylmethyl-benzoimidazol-1-yl)-thiazole-5-carboxylic acid amide] yielded an IC50 of 306 nM.

As for `NC(=O)c1sc(-n2cnc3ccc(CN4CCCCC4)cc32)nc1-c1cccc(Cl)c1` [Example 8, 4-(3-Chloro-phenyl)-2-(6-piperidin-1-ylmethyl-benzoimidazol-1-yl)-thiazole-5-carboxylic acid amide], the 50% inhibitory concentration (IC50) turned out to be 3440 nM.

`CN1CCC(NC(=O)c2ccc3ncn(-c4nc(-c5cccc(Cl)c5)c(C(N)=O)s4)c3c2)CC1` [Example 10, 3-[5-Carbamoyl-4-(3-chloro-phenyl)-thiazol-2-yl]-3H-benzoimidazole-5-carboxylic acid (1-methyl-piperidin-4-yl)-amide] came in with an IC50 of 2020 nM.

`CN1CCN(Cc2ccc3c(c2)ncn3-c2nc(-c3ccc(Cl)cc3)c(C(N)=O)s2)CC1` [Example 18, 4-(4-Chloro-phenyl)-2-[5-(4-methyl-piperazin-1-ylmethyl)-benzoimidazol-1-yl]thiazole-5-carboxylic acid amide] had a 50% inhibitory concentration (IC50) greater than 80000 nM.

Take `CN1CCC(NCc2ccc3ncn(-c4nc(-c5cccc(Cl)c5)c(C(N)=O)s4)c3c2)CC1` [Example 7, 4-(3-Chloro-phenyl)-2-{6-[(1-methyl-piperidin-4-ylamino)-methyl]-benzoimidazol-1-yl}-thiazole-5-carboxylic acid amide]: inhibition was half-maximal at 443 nM (IC50).

With `CN1CCN(Cc2ccc3ncn(-c4nc(-c5ccccc5Cl)c(C(N)=O)s4)c3c2)CC1` [Example 20, 4-(2-Chloro-phenyl)-2-[6-(4-methyl-piperazin-1-ylmethyl)-benzoimidazol-1-yl]-thiazole-5-carboxylic acid amide], the half-inhibitory concentration (IC50) stood at 346 nM.

Compound `CN1CCN(CCCOc2ccc3ncn(-c4nc(-c5cccc(Cl)c5)c(C(N)=O)s4)c3c2)CC1` [Example 33, 4-(3-Chloro-phenyl)-2-{6-[3-(4-methyl-piperazin-1-yl)-propoxy]-benzoimidazol-1-yl}-thiazole-5-carboxylic acid amide] came in with an IC50 of 32 nM.

The compound `NC(=O)c1sc(-n2cnc3ccc(OCCN4CCOCC4)cc32)nc1-c1cccc(Cl)c1` [Example 26, 4-(3-Chloro-phenyl)-2-[6-(2-morpholin-4-yl-ethoxy)-benzoimidazol-1-yl]-thiazole-5-carboxylic acid amide] returned an IC50 of 166 nM.

`CN1CCN(Cc2ccc3ncn(-c4nc(-c5ccc(C(F)(F)F)cc5)c(C(N)=O)s4)c3c2)CC1` [Example 47, 2-[6-(4-Methyl-piperazin-1-ylmethyl)-benzoimidazol-1-yl]-4-(4-trifluoromethyl-phenyl)-thiazole-5-carboxylic acid amide] registered an IC50 of 661 nM.

Take `NC(=O)c1sc(-n2cnc3ccc(CN4CCN(CCO)CC4)cc32)nc1-c1cccc(Cl)c1` [Example 5, 4-(3-Chloro-phenyl)-2-{6-[4-(2-hydroxy-ethyl)-piperazin-1-ylmethyl]-benzoimidazol-1-yl}-thiazole-5-carboxylic acid amide]: inhibition was half-maximal at 91 nM (IC50).

`NC(=O)c1sc(-n2cnc3ccc(OCCCN4CCOCC4)cc32)nc1-c1cccc(Cl)c1` [Example 30, 4-(3-Chloro-phenyl)-2-[6-(3-morpholin-4-yl-propoxy)-benzoimidazol-1-yl]-thiazole-5-carboxylic acid amide] yielded an IC50 of 21 nM.

The compound `CN1CCN(Cc2ccc3ncn(-c4nc(-c5ccccc5C(F)(F)F)c(C(N)=O)s4)c3c2)CC1` [Example 17, 2-[6-(4-Methyl-piperazin-1-ylmethyl)-benzoimidazol-1-yl]-4-(2-trifluoromethyl-phenyl)-thiazole-5-carboxylic acid amide] displayed an IC50 of 1140 nM.

Regarding `CN1CCN(C(=O)c2ccc3ncn(-c4nc(-c5cccc(Cl)c5)c(C(N)=O)s4)c3c2)CC1` [Example 11, 4-(3-Chloro-phenyl)-2-[6-(4-methyl-piperazine-1-carbonyl)-benzoimidazol-1-yl]-thiazole-5-carboxylic acid amide], inhibition was half-maximal at 215 nM (IC50).

For the compound `CN1CCN(Cc2ccc3ncn(-c4nc(-c5cccc(Cl)c5)c(C(N)=O)s4)c3c2)CC1` [Example 2, 4-(3-Chloro-phenyl)-2-[6-(4-methyl-piperazin-1-ylmethyl)-benzoimidazol-1-yl]-thiazole-5-carboxylic acid amide], 13 nM corresponded to half-maximal inhibition (IC50).

Consider `COc1cc2ncn(-c3nc(-c4cccc(Cl)c4)c(C(N)=O)s3)c2cc1OCCCN1CCN(C)CC1` [Example 42, 4-(3-Chloro-phenyl)-2-{5-methoxy-6-[3-(4-methyl-piperazin-1-yl)-propoxy]-benzoimidazol-1-yl}-thiazole-5-carboxylic acid amide], for which the half-maximal inhibitory concentration (IC50) came out at 19 nM.

`CN1CCN(CCc2ccc3ncn(-c4nc(-c5cccc(Cl)c5)c(C(N)=O)s4)c3c2)CC1` [Example 9, 4-(3-Chloro-phenyl)-2-{6-[2-(4-methyl-piperazin-1-yl)-ethyl]-benzoimidazol-1-yl}-thiazole-5-carboxylic acid amide] came in with an IC50 of 109 nM.

`CN1CCN(Cc2ccc3ncn(-c4nc(-c5ccc(Cl)cc5)c(C(N)=O)s4)c3c2)CC1` [Example 19, 4-(4-Chloro-phenyl)-2-[6-(4-methyl-piperazin-1-ylmethyl)-benzoimidazol-1-yl]-thiazole-5-carboxylic acid amide] came in with an IC50 of 499 nM.

In turn, `CN(C)CCCOc1ccc2ncn(-c3nc(-c4cccc(Cl)c4)c(C(N)=O)s3)c2c1` [Example 31, 4-(3-Chloro-phenyl)-2-[6-(3-dimethylamino-propoxy)-benzoimidazol-1-yl]-thiazole-5-carboxylic acid amide] displayed an IC50 of 161 nM.

By IC50 is commonly meant the midpoint of a concentration-inhibition curve. Read a high IC50 as a need for much substance.
